Test systems include A549 NSCLC; DU-145 prostate; MCF7 breast; OVCAR-8 ovarian; RPMI-8226 leukemia; SF-268 CNS; SK-MEL-28 melanoma; SK-OV-3 ovarian; SN12C renal.
What all share (test): NCI-60 cell line screen, 48 h

Structures are written as SMILES.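 Values below derive from 48-hour exposures of cells grown in 96-well plates, with endpoints linearly interpolated between the two concentrations bracketing the appropriate inhibition level. At the TGI there is no net growth.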 Where a SMILES comes first, the peptide text is derived from it. [ ]: non-standard residue; d: D form. The star is where a group is joined. X28 = COC1=CC(=O)N(C(=O)[C@@H](O*)C(C)C)[C@H]1Cc1ccccc1; NMeL = CN[C@@H](CC(C)C)C(=O)O; Hexanoyl = CCCCCC(=O)*

On to `c1ccc(COc2nc3ccc(C45CC6CC(CC(C6)C4)C5)cc3[nH]2)cc1`, for which the TGI was greater than 100 µM in the assay on A549 NSCLC; greater than 100 µM in the assay with DU-145 prostate; greater than 100 µM in the assay on MCF7 breast; greater than 100 µM in the assay on OVCAR-8 ovarian; 30.9 µM in the assay with RPMI-8226 leukemia; greater than 100 µM with SF-268 CNS. Also, the TGI in the assay on SK-MEL-28 melanoma, in the assay on SK-OV-3 ovarian and with SN12C renal was greater than 100 µM each time.

Turning to `COc1ccc2c(c1)CC[C@@H]1C2CC[C@]2(C)OC(=O)CCC12` (some centres undefined), the TGI with A549 NSCLC is greater than 100 µM; with DU-145 prostate, greater than 100 µM; in the assay with MCF7 breast it was 35.2 µM; with OVCAR-8 ovarian it was 28.4 µM; in the assay on RPMI-8226 leukemia, greater than 100 µM; in the assay with SF-268 CNS, 26.6 µM. Besides, the TGI in the assay on SK-MEL-28 melanoma is 34.3 µM; with SK-OV-3 ovarian it was greater than 100 µM; in the assay with SN12C renal, 29.1 µM.

Regarding `COc1ccc2c(c1)CCC(CN1CCN(CCOC(c3ccc(F)cc3)c3ccc(F)cc3)CC1)=C2`, the TGI was greater than 100 µM in the assay on A549 NSCLC; 49.2 µM in the assay on DU-145 prostate; 71.9 µM in the assay on MCF7 breast; 63.2 µM in the assay with OVCAR-8 ovarian; 36.9 µM in the assay on RPMI-8226 leukemia; greater than 100 µM with SF-268 CNS. The TGI in the assay on SK-MEL-28 melanoma was 77.1 µM; in the assay on SK-OV-3 ovarian it was greater than 100 µM; in the assay with SN12C renal, 26.3 µM.

`CCOC(=O)/C(O)=C(\C=N\C(=S)Nc1ccc(Cl)c(Cl)c1)C(=O)OCC`: the TGI in the assay on A549 NSCLC, in the assay on DU-145 prostate, with MCF7 breast, with OVCAR-8 ovarian, in the assay with RPMI-8226 leukemia and in the assay on SF-268 CNS was greater than 100 µM in each case. Besides, the TGI in the assay on SK-MEL-28 melanoma, in the assay with SK-OV-3 ovarian and in the assay on SN12C renal was greater than 100 µM throughout.

As to `CC(C)(C)NCC(O)COc1cccc2[nH]c(C#N)cc12` (centres undefined), the TGI in the assay with A549 NSCLC, in the assay with DU-145 prostate, in the assay on MCF7 breast, with OVCAR-8 ovarian, with RPMI-8226 leukemia and in the assay on SF-268 CNS was greater than 100 µM in each case. Also, the TGI with SK-MEL-28 melanoma, in the assay with SK-OV-3 ovarian and in the assay with SN12C renal was greater than 100 µM in each case.

As for `CCCCc1cc2c(cc1O)CCC1C2CC[C@@]2(C)C1CC[C@@H]2O` (some centres undefined), the TGI in the assay on A549 NSCLC is 29.3 µM; in the assay with DU-145 prostate, 35.3 µM; in the assay with MCF7 breast, 30.4 µM; with OVCAR-8 ovarian, 43.4 µM; with RPMI-8226 leukemia, 39.1 µM; with SF-268 CNS, 89 µM. In addition, the TGI was determined as 45.1 µM with SK-MEL-28 melanoma, 37.1 µM with SK-OV-3 ovarian and 39.3 µM with SN12C renal.

With `Cc1ccc(S(=O)(=O)OC2CN3CCC2CC3)cc1` (centres undefined), the TGI in the assay on A549 NSCLC, with DU-145 prostate, in the assay with MCF7 breast, in the assay on OVCAR-8 ovarian, in the assay on RPMI-8226 leukemia and in the assay with SF-268 CNS was greater than 100 µM each time. In addition, the TGI in the assay with SK-MEL-28 melanoma, in the assay on SK-OV-3 ovarian and in the assay on SN12C renal was greater than 100 µM throughout.

As for `CCCCCC(=O)N[C@H](C(=O)N[C@H](C(=O)N(C)[C@@H](CC(C)C)C(=O)N1CCC[C@H]1C(=O)N1CCC[C@H]1C(=O)O[C@H](C(=O)N1C(=O)C=C(OC)[C@@H]1Cc1ccccc1)C(C)C)C(C)C)C(C)C` (Hexanoyl-VV[NMeL]PP-X28), the TGI with A549 NSCLC, with DU-145 prostate, in the assay on MCF7 breast, with OVCAR-8 ovarian, in the assay on RPMI-8226 leukemia and in the assay with SF-268 CNS was greater than 100 µM throughout. Besides, the TGI in the assay with SK-MEL-28 melanoma, with SK-OV-3 ovarian and in the assay on SN12C renal was greater than 100 µM throughout.

`NC12c3c4cccc3Oc3cccc(c31)Oc1cccc(c12)O4`: the TGI in the assay with A549 NSCLC, with DU-145 prostate, in the assay on MCF7 breast, in the assay on OVCAR-8 ovarian, with RPMI-8226 leukemia and in the assay with SF-268 CNS was greater than 50 µM throughout. Besides, the TGI with SK-MEL-28 melanoma, in the assay with SK-OV-3 ovarian and in the assay on SN12C renal was greater than 50 µM in each case.

Consider `Brc1ccc(-c2ccc(-c3ccc(Br)s3)s2)s1`, for which the TGI with A549 NSCLC, with DU-145 prostate, in the assay on MCF7 breast, in the assay on OVCAR-8 ovarian, with RPMI-8226 leukemia and in the assay with SF-268 CNS was greater than 100 µM in each case. Also, the TGI in the assay on SK-MEL-28 melanoma, with SK-OV-3 ovarian and with SN12C renal was greater than 100 µM each time.

As to `C(=N\NC1=NCCCN1)/c1ccc(-c2cn3cc(/C=N/NC4=NCCCN4)ccc3n2)cc1`, the TGI was greater than 100 µM in the assay with A549 NSCLC; greater than 100 µM in the assay with DU-145 prostate; greater than 100 µM in the assay with MCF7 breast; greater than 89 µM with OVCAR-8 ovarian; greater than 88.6 µM with RPMI-8226 leukemia; greater than 100 µM in the assay with SF-268 CNS. Also, the TGI in the assay on SK-MEL-28 melanoma, in the assay on SK-OV-3 ovarian and with SN12C renal was greater than 100 µM throughout.

As to `CCCCCCc1cc(C=O)sc1-c1ccc(-c2sc(-c3ccc(-c4ccc(-c5cc(CCCCCC)c(-c6ccc(-c7sc(C=O)cc7CCCCCC)s6)s5)s4)s3)cc2CCCCCC)s1`, the TGI with A549 NSCLC, in the assay with DU-145 prostate, in the assay on MCF7 breast, in the assay on OVCAR-8 ovarian, in the assay on RPMI-8226 leukemia and in the assay with SF-268 CNS was greater than 100 µM each time. The TGI in the assay on SK-MEL-28 melanoma, in the assay on SK-OV-3 ovarian and in the assay with SN12C renal was greater than 100 µM in each case.

As for `Cc1nn(-c2ccccc2)c(C)c1/C=N/NC(=O)c1sc(=S)n(-c2ccc(Cl)cc2)c1N`, the TGI was greater than 100 µM in the assay on A549 NSCLC; greater than 100 µM in the assay on DU-145 prostate; greater than 100 µM in the assay with MCF7 breast; greater than 100 µM in the assay with OVCAR-8 ovarian; 7.73 µM in the assay on RPMI-8226 leukemia; greater than 100 µM with SF-268 CNS. For the same compound, the TGI with SK-MEL-28 melanoma, in the assay with SK-OV-3 ovarian and in the assay on SN12C renal was greater than 100 µM each time.

As for `C=C1C(=O)O[C@H]2C1C[C@@H](O)[C@@]1(C)OC1CC[C@@]1(C)O[C@H]21` (some centres undefined), the TGI with A549 NSCLC was greater than 100 µM; with DU-145 prostate, greater than 100 µM; in the assay with MCF7 breast, 29 µM; with OVCAR-8 ovarian, greater than 100 µM; with RPMI-8226 leukemia, 32.1 µM; with SF-268 CNS, greater than 100 µM. For the same compound, the TGI was 38.8 µM in the assay on SK-MEL-28 melanoma, greater than 100 µM in the assay on SK-OV-3 ovarian and 42.4 µM in the assay on SN12C renal.

As to `O=[N+]([O-])c1ccccc1S(=O)(=O)N1CCCc2cc(Cl)ccc21`, the TGI in the assay with A549 NSCLC was greater than 100 µM; in the assay on DU-145 prostate, greater than 100 µM; in the assay with MCF7 breast, greater than 80.3 µM; with OVCAR-8 ovarian, greater than 100 µM; in the assay with RPMI-8226 leukemia, greater than 100 µM; in the assay with SF-268 CNS it was greater than 100 µM. In addition, the TGI in the assay with SK-MEL-28 melanoma, in the assay with SK-OV-3 ovarian and in the assay on SN12C renal was greater than 100 µM throughout.

Consider `Cc1cn2c(/C=C3/C(=O)Nc4ccccc43)c(-c3ccccc3)nc2s1`, for which the TGI in the assay with A549 NSCLC, in the assay on DU-145 prostate, with MCF7 breast, in the assay with OVCAR-8 ovarian, in the assay on RPMI-8226 leukemia and in the assay with SF-268 CNS was greater than 100 µM each time. Also, the TGI with SK-MEL-28 melanoma was greater than 100 µM; in the assay with SK-OV-3 ovarian, 76.4 µM; with SN12C renal, greater than 100 µM.

`CCCCc1ccc(N2C(=O)c3cc(C)cnc3S2(=O)=O)cc1`: the TGI in the assay on A549 NSCLC, with DU-145 prostate, with MCF7 breast, in the assay with OVCAR-8 ovarian, in the assay with RPMI-8226 leukemia and with SF-268 CNS was greater than 100 µM in each case. Further, the TGI in the assay on SK-MEL-28 melanoma, in the assay with SK-OV-3 ovarian and in the assay on SN12C renal was greater than 100 µM each time.

On to `COc1cccc(-n2nnc3c(N)nc(N)nc32)c1`, for which the TGI with A549 NSCLC, in the assay on DU-145 prostate, with MCF7 breast, in the assay with OVCAR-8 ovarian, in the assay with RPMI-8226 leukemia and with SF-268 CNS was greater than 100 µM in each case. Moreover, the TGI in the assay on SK-MEL-28 melanoma, with SK-OV-3 ovarian and in the assay on SN12C renal was greater than 100 µM throughout.

On to `CC(=O)OCc1ccc(-c2nc(C#N)c(N)o2)o1`, for which the TGI in the assay on A549 NSCLC, in the assay with DU-145 prostate, in the assay on MCF7 breast, with OVCAR-8 ovarian, with RPMI-8226 leukemia and in the assay on SF-268 CNS was greater than 10 µM throughout. The TGI in the assay with SK-MEL-28 melanoma, with SK-OV-3 ovarian and with SN12C renal was greater than 10 µM each time.

For the compound `CC(=O)C1=CC=C/C1=N\Nc1ccccc1`, the TGI in the assay on A549 NSCLC is 35.1 µM; in the assay with DU-145 prostate, 28.2 µM; in the assay with MCF7 breast, 5.68 µM; with OVCAR-8 ovarian, 64.4 µM; with RPMI-8226 leukemia, 7.75 µM; with SF-268 CNS, 23.8 µM. The TGI was found to be 27 µM in the assay on SK-MEL-28 melanoma, 30.7 µM with SK-OV-3 ovarian and 22.7 µM in the assay on SN12C renal.

Consider `COC(=O)CCCc1ccc2c(c1)CCC2`, for which the TGI in the assay on A549 NSCLC, with DU-145 prostate, in the assay with MCF7 breast, in the assay with OVCAR-8 ovarian, in the assay on RPMI-8226 leukemia and in the assay on SF-268 CNS was greater than 100 µM in each case. The TGI with SK-MEL-28 melanoma, with SK-OV-3 ovarian and with SN12C renal was greater than 100 µM each time.

Values taken from PubChem BioAssay (NCI).
